Entries after “also recorded” stand apart in the source; their conditions may differ.
Legend:
[1] = test system: bone marrow cells induced to differentiate into osteoclasts; test: Osteoclast differentiation of bone marrow cells with RANKL and M-CSF (TRAP+ osteoclasts); type: cell-based, mice
Protocol: (§1) A.) Bone marrow cells from WT and radiation chimeric netrin^−/− bone marrow mice were isolated and induced to differentiate into osteoclasts by incubation with RANKL and M-CSF. […] Cells from 5 different mice repeated in duplicate. […] A2A receptor stimulation reduces Unc5b, but not DCC, expression. Representative of 2 experiments. C. Bone mineral density (BMD) determined by Pixamouse small animal Dexa scanner. WT mice and Netrin1 KO mice are chimeras generated by infusion of either normal or netrin-1 deficient fetal liver into lethally irradiated congenic C57Black/6 mice. BMD was measured 18 weeks after transplant. Shown are the results of determinations on 5 mice in each group. […] Representative of 5 different mice with each treatment. E. Soft tissue from patients stained for semaphorin 4D (original magnification 800×). On the left is soft tissue obtained at the time of hip replacement (Representative of 14). […] On the right is tissue obtained at time of prosthesis revision (representative of 12).
Consistent with this observation it was shown that radiation chimeras with netrin-1^−/− replacement bone marrow have increased bone mineral density, as measured by Dexa scan (FIG. 4). […]

[2] = test system: netrin-1; test: Western blot of netrin-1 in supernate of RAW264.7 cells differentiating to osteoclasts; type: cell-based, murine; conditions: CGS21680 1 μM, RANKL and M-CSF
Protocol: as §1

[3] = test system: Unc5b; test: Western blot of Unc5b in RAW264.7 cells differentiating to osteoclasts; type: cell-based, murine; conditions: CGS21680 1 μM
Protocol: as §1

[4] = test system: sema4D-expressing cells; test: Sema4D staining of calvarium in murine model of wear particle-induced osteolysis; type: in vivo; conditions: wear particle-treated mice; immunostaining
Protocol: A.) Total cell lysates from primary murine bone marrow cells alone (basal) or after osteoclast differentiation in the presence of saline, CGS21680 (1 μM) with/without ZM241385 (1 μM) were subject to Western Blot detection of sema4D. Shown is a representative experiment of 3. B.) RAW264.7 osteoclasts, infected with a lentiviral vector expressing either shRNA for the catalytic subunit of PKA, scrambled shRNA, or primary murine bone marrow cells were cultured in the presence of saline (Black line) or CGS21680 (1 μM, Red Line) with/without ZM241385 (1 μM, Blue Line) for the time periods indicated before harvest of the cells, collection of RNA and real time RTPCR. Results represent the means (±SEM) of 5 separate determinations. C. Calvarium from sham or wear particle-treated wild type (C57B1/6) mice or adenosine A2A receptor knockout mice (C57B1/6 background) were stained for sema4D. D. Soft tissue from patients stained for semaphorin 4D (original magnification 800×). On the left is soft tissue obtained at the time of joint replacement (Representative of 14). On the right is tissue obtained at time of prosthesis revision (representative of 12). […] In this model ultra high molecular weight polyethylene particles (UHMWPE) are injected into an air pouch overlying the calvaria and the area of bone resorption is measured. […]

[5] = test system: semaphorin 4D; test: Sema4D expression (Western blot, real time RT-PCR) in osteoclasts from primary murine bone marrow cells and RAW264.7 cells; type: cell-based; conditions: CGS21680 1 μM; protein kinase A-dependent
Protocol: A.) Total cell lysates from primary murine bone marrow cells alone (basal) or after osteoclast differentiation in the presence of saline, CGS21680 (1 μM) with/without ZM241385 (1 μM) were subject to Western Blot detection of sema4D. Shown is a representative experiment of 3. B.) RAW264.7 osteoclasts, infected with a lentiviral vector expressing either shRNA for the catalytic subunit of PKA, scrambled shRNA, or primary murine bone marrow cells were cultured in the presence of saline (Black line) or CGS21680 (1 μM, Red Line) with/without ZM241385 (1 μM, Blue Line) for the time periods indicated before harvest of the cells, collection of RNA and real time RTPCR. Results represent the means (±SEM) of 5 separate determinations. C. Calvarium from sham or wear particle-treated wild type (C57B1/6) mice or adenosine A2A receptor knockout mice (C57B1/6 background) were stained for sema4D. D. Soft tissue from patients stained for semaphorin 4D (original magnification 800×). On the left is soft tissue obtained at the time of joint replacement (Representative of 14). On the right is tissue obtained at time of prosthesis revision (representative of 12).

[6] = test system: wear particle-induced osteolysis; test: New bone formation at sites of wear particle-induced osteolysis (Xenolight Rediject Bone Probe 680, IVIS); type: in vivo, mice; conditions: daily injections of CGS21680 into air pouch over calvarium
Protocol: Mice (C57B1/6) underwent formation of an air pouch over the calvarium and then exposed to saline (sham) or wear particles […] followed by daily injections of 200 μl of saline or CGS21680, as previously described. Animals were injected with Xenolight Rediject Bone Probe 680 (2 nmoles in 150 ul) followed by scanning in the IVIS apparatus. The intensity of staining is indicated by increasing yellow coloration. The fluorescence is detectable without change for 3-4 days and persists for as long as 2 weeks although all of these scans were taken on the day of injection. Shown are representative scans of ⅕ animals per group. The intensity of fluorescence was quantitated in a specific area of interest using software provided with the apparatus and the mean (±SEM) was calculated for 5 animals in each. In these experiments osteolysis will be monitored as porosity of the calvaria, measured by microCT, as has been previously described (Mediero, et al., Sci Transl Med, 2012. 4(135): 135-65). […] In addition, sema4D, netrin-1, GM-CSF, M-CSF, IP-10, MCP-1, IL-1, TNF, IL-6, IL-10, osteoprotegerin, osteocalcin and RANKL in supernates of cultured calvaria will be quantified by luminex assay, as has been previously described (Mediero, et al., Sci Transl Med, 2012. 4(135): 135-65). […]

[7] = test system: RANK; test: RANK staining of calvarium in murine model of wear particle-induced osteolysis; type: in vivo, mice; conditions: wear particles 4 weeks; saline containing CGS21680 1 μM
Protocol: (§2) A. Shown are representative sections (from 10 different mice) of mouse calvarium after formation of an air pouch alone (sham) or after formation of an air pouch and exposure to wear particles for 4 weeks in the presence of saline or saline containing CGS21680 (1 μM), as we have previously described (Mediero, et al., Sci Transl Med, 2012. 4(135): 135-65). Dark brown staining is positive. B. RNA was isolated from normal human osteoblasts (Alizarin Red+/Alkaline Phosphatase+ cells) after differentiation from normal marrow cells in the presence or absence of CGS21680 (1 μM). Real time RT-PCR was carried out for RANKL and normalized to GAPDH. Shown are mean (+/−SD) results of two different samples carried out in duplicate.

[8] = test system: RANKL; test: RANKL staining of calvarium in murine model of wear particle-induced osteolysis; type: in vivo, mice; conditions: wear particles 4 weeks; saline containing CGS21680 1 μM
Protocol: as §2

[9] = test system: osteoprotegerin; test: Osteoprotegerin staining of calvarium in murine model of wear particle-induced osteolysis; type: in vivo, mice; conditions: wear particles 4 weeks; saline containing CGS21680 1 μM
Protocol: as §2

[10] = test system: RANKL; test: RANKL real time RT-PCR in normal human osteoblasts differentiated from marrow cells; type: cell-based; conditions: CGS21680 1 μM; normalized to GAPDH
Protocol: as §2

[11] = test system: NFκB p50/p105; test: NFκB p50/p105 nuclear translocation in RAW264.7 cells with RANKL (Western blot); type: cell-based, murine; conditions: CGS21680 1 μM; 30 min with RANKL; PKA-ERK1/2 mechanism
Protocol: RAW264.7 cells were infected with lentiviral constructs expressing shRNA for the catalytic subunit of PKA or a scrambled control. Cells were incubated for 30 min in the presence of RANKL alone, plus CGS21680 (1 μM, CGS) or plus CGS and ZM241385 (1 μM, C+Z) before lysis, separation of nuclear and cytosolic fractions and analysis by Western Blot. Shown are representative Western Blots. Results in the bar graphs are expressed as the means of four independent experiments analyzed densitometrically and normalized to actin. Results were analyzed by two way ANOVA and Bonferroni post-hoc testing.

[12] = test system: netrin-1; test: Netrin-1 expression in inflammatory infiltrate in wear particle-induced osteolysis; type: in vivo; conditions: wear particle-induced osteolysis in mice
Protocol: as §1
Staining for netrin-1 was carried out in collaboration with Dr. Kathryn Moore's laboratory, an internationally known expert on the role of this protein in macrophage function in atherosclerosis (van Gils, et al., Nat Immunol, 2012, 13(2): 136-43). […]

Structure (SMILES)	osteoclast differentiation in WT cells ([1]; CGS21680 1 μM, RANKL and M-CSF, WT bone marrow cells)	netrin-1 in the supernate of RAW264.7 cells [2]	Unc5b expression [3]	number of sema4D-expressing cells in the calvaria [4]	semaphorin 4D expression by osteoclasts [5]	new bone formation at sites of wear particle-induced osteolysis [6]	RANK expression in calvarium [7]	RANKL expression in calvarium [8]	osteoprotegerin expression in calvarium [9]	RANKL mRNA in differentiating osteoblasts [10]	NFκB p50/p105 nuclear translocation [11]	netrin-1 expression in the inflammatory infiltrate [12]	reversal of the A2A receptor agonist (CGS21680) reduction of osteoclast differentiation ([1]; WT cells with CGS21680 1 μM, netrin-1 250 ng/ml)
CCNC(=O)[C@H]1O[C@@H](n2cnc3c(N)nc(NCCc4ccc(CCC(=O)O)cc4)nc32)[C@H](O)[C@@H]1O [CGS21680]	reduces osteoclast differentiation	reduces netrin-1	reduces Unc5b	dramatically decreased; also recorded: diminishes recruitment of semaphorin 4D positive cells	inhibits	restored	diminishes RANK	diminishes RANK, RANKL	increases osteoprotegerin expression	diminishes RANKL mRNA	inhibits	inhibits its expression	
Nc1nc(NCCc2ccc(O)cc2)nc2nc(-c3ccco3)nn12 [ZM241385]													reversed

Reference: patent publication US9381245B2, “Methods for inhibiting osteolysis” (New York University, priority 2012, dated 2016)
